Test results published in patent publication US12264158B2, “Protein kinase MKK4 inhibitors for promoting liver regeneration or reducing or preventing hepatocyte death” (HEPAREGENIX GMBH, priority 2018, dated 2025).
pIC50: −log10 of the molar value.

How the values were obtained:
MKK4 = biological target: T1, MKK4 (Homo sapiens, UniProt P45985); test: KINOMEscan competition binding assay, MKK4 potency; settings: concentration of 100 nM
T1 construct: S84/D399; host or cells: HEK-293
T1 sequence (P45985 84-399): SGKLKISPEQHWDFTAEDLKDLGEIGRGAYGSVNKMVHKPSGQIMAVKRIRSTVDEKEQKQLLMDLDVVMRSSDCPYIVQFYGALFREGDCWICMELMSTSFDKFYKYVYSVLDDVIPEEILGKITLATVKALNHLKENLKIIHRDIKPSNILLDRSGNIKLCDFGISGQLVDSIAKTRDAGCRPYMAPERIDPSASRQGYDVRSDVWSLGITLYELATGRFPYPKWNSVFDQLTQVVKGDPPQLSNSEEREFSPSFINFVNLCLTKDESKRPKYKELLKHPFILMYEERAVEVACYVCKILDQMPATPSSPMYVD
Procedure: (§1) The assay was performed by combining three components: DNA-tagged kinase; immobilized ligand; and a test compound. The ability of the test compound to compete with the immobilized ligand was measured via quantitative PCR of the DNA tag. The technology is described in detail in Fabian, M. A. et al. A small molecule-kinase interaction map for clinical kinase inhibitors. Nat. […] M. W. et al. A quantitative analysis of kinase inhibitor selectivity, Nat.
(§2) For investigation of the affinity to MKK4, MKK7 and JNK1, the kinases were produced in HEK-293 cells and subsequently tagged with DNA for qPCR detection. […] The liganded beads were blocked with excess biotin and washed with blocking buffer (SEABLOCK™ (Pierce), 1% BSA, 0.05% TWEEN®20, 1 mM DTT) to remove unbound ligand and to reduce nonspecific binding. […] All reactions were performed in polystyrene 96-well plates in a final volume of 0.135 mL. […] The kinase concentration in the eluates was measured by qPCR.
(§3) The test compounds were provided as 10 mM stock solutions. The test solutions at indicated final concentrations were prepared at DiscoverX.

JNK1 = biological target: T2, JNK1 (Homo sapiens, UniProt P45983); test: KINOMEscan competition binding assay, selectivity against off-target JNK1; settings: concentration of 100 nM
T2 construct: M1/Q384; host or cells: HEK-293
T2 sequence (P45983 1-384 isoform P45983-2): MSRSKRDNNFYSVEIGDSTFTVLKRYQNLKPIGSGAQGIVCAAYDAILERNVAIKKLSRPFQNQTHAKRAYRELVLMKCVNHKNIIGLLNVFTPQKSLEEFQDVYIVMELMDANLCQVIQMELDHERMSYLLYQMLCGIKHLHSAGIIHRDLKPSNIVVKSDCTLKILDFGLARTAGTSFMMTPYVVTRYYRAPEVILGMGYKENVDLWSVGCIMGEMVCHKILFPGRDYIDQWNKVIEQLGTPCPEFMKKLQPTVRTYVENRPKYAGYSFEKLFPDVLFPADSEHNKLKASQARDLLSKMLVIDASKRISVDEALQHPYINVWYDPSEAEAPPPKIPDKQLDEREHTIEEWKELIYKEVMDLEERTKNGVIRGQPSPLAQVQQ
Procedure: as §1, §2, §3

MKK7 = biological target: T3, MKK7 (Homo sapiens, UniProt O14733); test: KINOMEscan competition binding assay, selectivity against off-target MKK7; settings: concentration of 100 nM
T3 construct: M1/R419; host or cells: HEK-293
T3 sequence (O14733 1-419): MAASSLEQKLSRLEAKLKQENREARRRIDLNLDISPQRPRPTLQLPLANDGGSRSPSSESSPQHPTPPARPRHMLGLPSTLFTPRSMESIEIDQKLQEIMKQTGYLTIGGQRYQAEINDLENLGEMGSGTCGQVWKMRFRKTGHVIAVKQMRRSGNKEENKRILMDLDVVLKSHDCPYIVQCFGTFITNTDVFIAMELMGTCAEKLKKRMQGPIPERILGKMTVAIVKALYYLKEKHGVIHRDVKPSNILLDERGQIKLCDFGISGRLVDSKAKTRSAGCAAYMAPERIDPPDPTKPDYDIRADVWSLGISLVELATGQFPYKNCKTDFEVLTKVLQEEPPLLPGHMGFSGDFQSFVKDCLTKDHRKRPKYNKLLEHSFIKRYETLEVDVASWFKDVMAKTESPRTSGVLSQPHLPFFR
Procedure: as §1, §2, §3

BRaf = BRaf (Homo sapiens, UniProt P15056); test: KINOMEscan competition binding assay, selectivity against off-target BRaf; settings: concentration of 100 nM
Sequence of BRaf (P15056 whole entry): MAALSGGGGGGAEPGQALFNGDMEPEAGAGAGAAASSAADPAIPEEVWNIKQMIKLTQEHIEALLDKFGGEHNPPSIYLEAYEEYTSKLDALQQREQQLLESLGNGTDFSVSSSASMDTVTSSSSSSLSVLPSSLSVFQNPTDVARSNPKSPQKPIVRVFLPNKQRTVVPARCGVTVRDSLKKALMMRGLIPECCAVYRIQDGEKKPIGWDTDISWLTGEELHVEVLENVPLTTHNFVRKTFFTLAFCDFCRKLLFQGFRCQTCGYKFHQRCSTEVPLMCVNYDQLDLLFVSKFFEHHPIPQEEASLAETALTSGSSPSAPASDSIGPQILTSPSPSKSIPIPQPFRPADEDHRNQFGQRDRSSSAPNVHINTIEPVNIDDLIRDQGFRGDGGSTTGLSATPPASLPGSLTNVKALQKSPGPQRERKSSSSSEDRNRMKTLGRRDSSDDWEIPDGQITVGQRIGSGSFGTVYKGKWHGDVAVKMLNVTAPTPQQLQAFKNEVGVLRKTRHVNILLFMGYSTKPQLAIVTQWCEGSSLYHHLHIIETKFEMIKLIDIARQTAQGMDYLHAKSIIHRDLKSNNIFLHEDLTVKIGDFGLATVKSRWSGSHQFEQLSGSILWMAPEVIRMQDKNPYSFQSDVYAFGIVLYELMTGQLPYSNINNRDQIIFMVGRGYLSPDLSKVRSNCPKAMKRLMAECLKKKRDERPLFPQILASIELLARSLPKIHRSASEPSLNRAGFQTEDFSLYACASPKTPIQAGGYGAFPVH
Procedure: as §1, §3

MKK4-MEKK2 mix = biological target: T4, MKK4-MEKK2 mix (Homo sapiens, UniProt P45985); test: Radiometric protein kinase assay, MEKK2 dependent MKK4 activation (cascade); type: biochemical; settings: substrate JNK1 KRKR, ATP 0.2 μM, read-out: Cascade, potency derived from IC50-values
T4 construct: MEKK2, recombinant, active: ProQinase product #0583-0000-1
T4 sequence (P45985 2-399): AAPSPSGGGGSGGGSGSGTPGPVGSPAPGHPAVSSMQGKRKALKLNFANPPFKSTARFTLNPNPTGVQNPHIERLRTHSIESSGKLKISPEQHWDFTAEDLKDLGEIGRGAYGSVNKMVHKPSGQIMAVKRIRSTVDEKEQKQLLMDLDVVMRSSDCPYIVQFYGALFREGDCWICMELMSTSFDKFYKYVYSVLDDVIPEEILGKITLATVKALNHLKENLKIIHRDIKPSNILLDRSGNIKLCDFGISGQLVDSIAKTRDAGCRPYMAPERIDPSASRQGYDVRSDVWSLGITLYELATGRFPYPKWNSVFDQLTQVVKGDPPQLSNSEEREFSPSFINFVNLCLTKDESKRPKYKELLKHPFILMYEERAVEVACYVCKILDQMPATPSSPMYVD
Procedure: The activation step is done in 50 mM HEPES pH 7.5, 50 mM NaCl, 3.8 mM MgCl2, 2.5 mM DTT, 10% (v/v) glycerol. Final DMSO concentration is 1%. The activation mixture is pipetted in the following order • 2.5 μl compound in 4% DMSO • 2.5 μl ATP/MgCl2 mix • 5 μl premixed kinase solution MKK4:MEKK2 10:1 (w/w)
Protein concentrations in the activation mix are 1 μM MKK4 and 50 nM MEKK2.
(§4) A radiometric protein kinase assay was used for measuring the kinase activity of the respective protein kinases. All kinase assays were performed in 96-well polypropylene plates. After the reactions were stopped, the assay mixtures were transferred to 96-well MSFC filter-plates (Millipore). The reaction mix was passed through the filter membrane by aspiration, the membrane was washed 3 times with 150 mM H3PO4, once with ethanol, dried and liquid scintillation cocktail was added. Radioactivity was determined by counting of the samples in a Microbeta multiwell scintillation counter (Wallac).

MKK4 active = biological target: T5, MKK4 active (Homo sapiens, UniProt P45985); test: Radiometric protein kinase assay, MKK4 active; type: biochemical; settings: substrate JNK1 KRKR, ATP 0.2 μM, read-out: MKK4, potency derived from IC50-values
T5 construct: purchased ProQinase #0948-0000-1
T5 sequence (P45985 1-399): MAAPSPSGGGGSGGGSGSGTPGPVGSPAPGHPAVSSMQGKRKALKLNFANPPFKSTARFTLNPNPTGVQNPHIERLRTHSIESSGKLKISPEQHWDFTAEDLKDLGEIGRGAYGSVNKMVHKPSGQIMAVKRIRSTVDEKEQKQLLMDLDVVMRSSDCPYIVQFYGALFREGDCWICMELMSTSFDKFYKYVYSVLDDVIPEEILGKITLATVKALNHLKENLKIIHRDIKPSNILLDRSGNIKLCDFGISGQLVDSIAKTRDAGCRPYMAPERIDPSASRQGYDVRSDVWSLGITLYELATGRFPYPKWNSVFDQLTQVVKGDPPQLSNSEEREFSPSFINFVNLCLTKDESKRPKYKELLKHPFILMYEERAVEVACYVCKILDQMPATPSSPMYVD
Procedure: as §4

MEKK2 = biological target: T6, MEKK2 (Homo sapiens, UniProt Q9Y2U5); test: Radiometric protein kinase assay, MEKK2; type: biochemical; settings: substrate Casein, ATP 0.2 μM; read-out: MEKK2, potency derived from IC50-values
T6 construct: purchased ProQinase #0583-0000-1
T6 sequence (Q9Y2U5 1-619): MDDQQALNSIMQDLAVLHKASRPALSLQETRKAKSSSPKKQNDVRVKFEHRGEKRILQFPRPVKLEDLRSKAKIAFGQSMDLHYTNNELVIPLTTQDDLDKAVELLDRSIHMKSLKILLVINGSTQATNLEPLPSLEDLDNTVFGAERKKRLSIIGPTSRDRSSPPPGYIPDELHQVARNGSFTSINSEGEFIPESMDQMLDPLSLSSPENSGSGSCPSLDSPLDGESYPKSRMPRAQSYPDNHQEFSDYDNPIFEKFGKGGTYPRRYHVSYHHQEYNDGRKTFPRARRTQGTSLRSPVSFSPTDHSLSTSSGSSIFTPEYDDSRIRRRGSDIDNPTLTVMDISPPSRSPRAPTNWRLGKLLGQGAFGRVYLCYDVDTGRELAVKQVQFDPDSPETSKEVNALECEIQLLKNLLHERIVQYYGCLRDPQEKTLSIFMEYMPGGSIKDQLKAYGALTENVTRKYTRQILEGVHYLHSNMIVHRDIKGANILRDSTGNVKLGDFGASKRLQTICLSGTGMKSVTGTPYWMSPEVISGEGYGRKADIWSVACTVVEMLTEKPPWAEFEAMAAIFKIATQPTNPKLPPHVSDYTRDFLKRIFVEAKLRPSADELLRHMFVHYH
Procedure: as §4

MKK4, residual percent of control binding (PoC) (MKK4)	Selectivity vs. JNK1, ratio PoC(JNK1)/PoC(MKK4) (JNK1)	Selectivity vs. MKK7, ratio PoC(MKK7)/PoC(MKK4) (MKK7)	Selectivity vs. BRaf, ratio PoC(BRaf)/PoC(MKK4) (BRaf)	pIC50 (MKK4-MEKK2 mix)	pIC50 (MKK4 active)	pIC50 (MEKK2)	SMILES
++ (1 ≤ PoC < 10)	+++ (PoC(JNK1)/PoC(MKK4) ≥ 30)	+++ (PoC(MKK7)/PoC(MKK4) ≥ 30)	O (PoC(BRaf)/PoC(MKK4) < 3)	< 5.00	5.00 to 6.00	< 5.00	CCCS(=O)(=O)Nc1ccc(F)c(C(=O)c2n[nH]c3ncc(-c4ccc(N(C)C)cc4)cc23)c1F [Example 8, N-(3-(5-(4-(dimethylamino)-phenyl)-1H-pyrazolo[3,4-b]pyridine-3-carbonyl)-2,4-difluorophenyl)-propane-1-sulfonamide]
++ (1 ≤ PoC < 10)	++ (30 > PoC(JNK1)/PoC(MKK4) ≥ 10)	++ (30 > PoC(MKK7)/PoC(MKK4) ≥ 10)	+ (10 > PoC(BRaf)/PoC(MKK4) ≥ 3)	5.00 to 6.00	6.00 to 6.30	5.00 to 6.00	CCCS(=O)(=O)Nc1ccc(F)c(C(=O)c2n[nH]c3ncc(-c4ccccc4Cl)cc23)c1F [Example 9, N-(3-(5-(2-chlorophenyl)-1H-pyrazolo[3,4-b]pyridine-3-carbonyl)-2,4-difluorophenyl)-propane-1-sulfonamide]
++ (1 ≤ PoC < 10)	++ (30 > PoC(JNK1)/PoC(MKK4) ≥ 10)	++ (30 > PoC(MKK7)/PoC(MKK4) ≥ 10)	+ (10 > PoC(BRaf)/PoC(MKK4) ≥ 3)	5.00 to 6.00	> 6.30	5.00 to 6.00	CCCS(=O)(=O)Nc1ccc(F)c(C(=O)c2n[nH]c3ncc(-c4ccccc4C)cc23)c1F [Example 13, N-(2,4-difluoro-3-(5-o-tolyl-1H-pyrazolo[3,4-b]pyridine-3-carbonyl)-phenyl)propane-1-sulfon-amide]
+++ (PoC < 1)	+++ (PoC(JNK1)/PoC(MKK4) ≥ 30)	+++ (PoC(MKK7)/PoC(MKK4) ≥ 30)	+++ (PoC(BRaf)/PoC(MKK4) ≥ 30)	–	> 6.30	–	CCCS(=O)(=O)Nc1c(F)ccc(C(=O)c2n[nH]c3ncc(-c4ccc(C(=O)O)cc4)cc23)c1F [Example 62, 4-(3-(2,4-difluoro-3-(propylsulfon-amido)benzoyl)-1H-pyrazolo[3,4-b]pyridin-5-yl)benzoic acid]
–	–	–	–	> 6.30	> 6.30	> 6.30	CCCS(=O)(=O)Nc1c(F)ccc(C(=O)c2n[nH]c3ncc(-c4ccc(S(N)(=O)=O)cc4)cc23)c1F [Example 67, 4-(3-(2,4-difluoro-3-(propylsulfon-amido)benzoyl)-1H-pyrazolo[3,4-b]pyridin-5-yl)benzenesulfonamide]
+++ (PoC < 1)	+++ (PoC(JNK1)/PoC(MKK4) ≥ 30)	+++ (PoC(MKK7)/PoC(MKK4) ≥ 30)	+++ (PoC(BRaf)/PoC(MKK4) ≥ 30)	–	> 6.30	–	O=C(c1ccc(F)c(NS(=O)(=O)Cc2ccccc2)c1F)c1n[nH]c2ncc(-c3ccncc3)cc12 [Example 68, N-[2,6-difluoro-3-(5-pyridin-4-yl-1H-pyrazolo[3,4-b]pyridine-3-carbonyl)phenyl]-1-phenylmethanesulfonamide]

SMILES	MKK4, residual percent of control binding (PoC) (MKK4)	Selectivity vs. JNK1, ratio PoC(JNK1)/PoC(MKK4) (JNK1)	Selectivity vs. MKK7, ratio PoC(MKK7)/PoC(MKK4) (MKK7)	Selectivity vs. BRaf, ratio PoC(BRaf)/PoC(MKK4) (BRaf)	pIC50 (MKK4-MEKK2 mix)	pIC50 (MKK4 active)	pIC50 (MEKK2)
CCCS(=O)(=O)Nc1ccc(F)c(C(=O)c2n[nH]c3ncc(-c4ccccc4)cc23)c1F [Example 2, N-(2,4-difluoro-3-(5-phenyl-1H-pyrazolo[3,4-b]pyridine-3-carbonyl)phenyl)propane-1-sulfonamide]	++ (1 ≤ PoC < 10)	++ (30 > PoC(JNK1)/PoC(MKK4) ≥ 10)	+++ (PoC(MKK7)/PoC(MKK4) ≥ 30)	++ (30 > PoC(BRaf)/PoC(MKK4) ≥ 10)	5.00 to 6.00	> 6.30	< 5.00
CCCS(=O)(=O)Nc1ccc(F)c(C(=O)c2n[nH]c3ncc(-c4ccc(S(N)(=O)=O)cc4F)cc23)c1F [Example 51m, 4-(3-(2,6-difluoro-3-(propylsulfonamido)benzoyl)-1H-pyrazolo[3,4-b]pyridin-5-yl)-3-fluorobenzenesulfonamide]	–	–	–	–	5.00 to 6.00	> 6.30	5.00 to 6.00
